{"source": "patent US10385069B2", "about": "“Imidazo[2,1-B]thiazole and 5,6-dihydroimidazo[2,1-B]thiazole derivatives useful as S100-inhibitors” (Active Biotech AB, priority 2015, dated 2019)", "data": [{"molecular_target": "T1, interaction between biotinylated human S100A9 and human RAGE-Fc (Homo sapiens, UniProt P06702)", "T1 construct": "made in house; host or cells: E. coli", "T1 sequence (P06702 1-114)": "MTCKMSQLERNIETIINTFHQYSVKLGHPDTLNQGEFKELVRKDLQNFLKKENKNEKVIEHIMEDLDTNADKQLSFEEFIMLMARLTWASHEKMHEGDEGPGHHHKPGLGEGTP", "experiment": "AlphaScreen inhibition assay, biot-hS100A9:hRAGE-Fc", "format": "binding", "conditions": "biot-hS100A9 pre-incubated with compound 1 h, assay buffer with CaCl2 and ZnCl2", "description": "Inhibition Assay, Biot-hS100A9:hRAGE-Fc\nThe AlphaScreen (Amplified Luminescent Proximity Homogeneous Assay) contains two types of beads, Alpha Donor beads and Acceptor beads (PerkinElmer). Upon laser excitation at 680 nm a photosensitizer in the Donor bead converts ambient oxygen to a more excited singlet state. The singlet oxygen molecule diffuses (maximum 200 nm) to react with a thioxene derivative in the Acceptor bead and generates a chemiluminescence reaction. Fluorophores in the Acceptor bead subsequently emit light at 520-620 nm which can be detected in the EnVision® Multilabel plate Reader (PerkinElmer). The beads are light sensitive and all work with the beads is performed under subdued light conditions or using green filters on light sources (Roscolux Chroma Green #389, Rosco).\nIn the AlphaScreen Inhibition Assay described here, protein A (Staphylococcus aureus) conjugated Acceptor beads are used together with streptavidin coated Donor beads (Perkin Elmer 6760617M). The Acceptor beads are pre-incubated with Fc-tagged recombinant human RAGE (rhRAGE-Fc) allowing binding of the rhRAGE-Fc to protein A on the beads. Biotinylated human S100A9 (biot-hS100A9) is pre-incubated with the low molecular test compounds. The pre-mixes are then added to the wells of a micro-plate and incubated allowing interaction between biot-hS100A9 and rhRAGE-Fc. Subsequent addition of streptavidin coated Donor beads causes binding of the streptavidin to the biotinylated hS100A9. After an additional incubation the signal is measured.\nWithout inhibitory compounds, the interaction of biot-hS100A9 to rhRAGE-Fc will bring the Acceptor and Donor beads in close proximity thus generating a high signal. With an inhibitor present the complex will not form resulting in a decreased signal. The assay is illustrated in FIG. 1.\nChemicals and Reagents. • AlphaScreen® General IgG (Protein A) Detection Kit, (PerkinElmer 6760617M) • HBS-P buffer (GE Healthcare, BR-1003-68) • HBS-N buffer (GE Healthcare, BR-1003-69) • CaCl2 in HBS-P • ZnCl2 in Milli-Q water • DMSO • Biotinylated hS100A9, (biotinylated via cystein by EZ-link Iodoacetyl-PEG2-Biotin reagent (Pierce no. 21334), in HBS-N • rhRAGE-Fc (R&D Systems, 1145-RG-50), in HBS-P\nThe AlphaScreen assay method is used for screening of the inhibitory effect of different compound samples at fixed concentrations or for IC50 determination by varying the compound concentrations. Samples of test compounds and references are prepared from solutions in DMSO. Relevant reference inhibitors and DMSO are used as controls for defined inhibition and non-inhibition, respectively in the assay. The percent inhibition in assay for test compounds and references are calculated by comparing their obtained assay signals with the signal values for the control with only DMSO (no compound).\nAssay concentration of biotinylated hS100A9 and rhRAGE-Fc are batch dependent, and are determined and defined by separate cross-titration experiments using this AlphaScreen inhibition method to verify the optimal setup regarding signal strength and achievement of a defined inhibition with relevant reference compounds. The Final assay concentrations of Acceptor and Donor beads are 20 μg/mL.\nAssay buffer is prepared by adding CaCl2 and ZnCl2 to HBS-P and is used freshly prepared in the experiment.\nBiotin-hS100A9 solution for the experiment is prepared by dilution of appropriate amount of stock solution biot-hS100A9 in assay buffer (with CaCl2 and ZnCl2) and incubation in room temperature for 30 minutes.\nrhRAGE-Fc solution for the experiment is prepared by dilution appropriate amount of rhRAGE-Fc stock in assay buffer.\nProtein A Acceptor beads are diluted in assay buffer and are added to an equal volume of the prepared diluted rhRAGE-Fc solution. The beads are light sensitive. The vial is covered with aluminum foil and incubated at room temperature in the dark until biot-hS100A9+compound incubation is finished (see below). […]", "units": {"IC50": "nM"}, "values": [{"compound": "CN1CC(c2c(C(=O)O)nc3sc4c(Cl)c(F)ccc4n23)C1", "note": "[Example 290, 9-Chloro-10-fluoro-3-(1-methylazetidin-3-yl)-7-thia-2,5-diazatricyclo[6.4.0.0^2,6]dodeca-1(8),3,5,9,11-pentaene-4-carboxylic acid]", "IC50": 940}, {"compound": "O=C(O)c1cn2c(n1)sc1c(Cl)c(OC(F)(F)F)ccc12", "note": "[Example 214, 9-Chloro-10-(trifluoromethoxy)-7-thia-2,5-diazatricyclo[6.4.0.0^2,6]dodeca-1(8),3,5,9,11-pentaene-4-carboxylic acid]", "IC50": 640}, {"compound": "CC1CCCc2c1sc1nc(C(=O)NS(C)(=O)=O)cn21", "note": "(single isomer, unassigned) [Example 49, N-Methanesulfonyl-9-methyl-7-thia-2,5-diazatricyclo[6.4.0.0^2,6]dodeca-1(8),3,5-triene-4-carboxamide]", "IC50": 1010}, {"compound": "COc1ccc2c(sc3nc(C(=O)O)cn32)c1Cl", "note": "[Example 218, 9-Chloro-10-methoxy-7-thia-2,5-diazatricyclo[6.4.0.0^2,6]dodeca-1(8),3,5,9,11-pentaene-4-carboxylic acid]", "IC50": 1580}, {"compound": "CS(=O)(=O)NC(=O)c1cn2c(n1)sc1c(Cl)c(OC(F)(F)F)ccc12", "note": "[Example 220, 9-Chloro-N-methanesulfonyl-10-(trifluoromethoxy)-7-thia-2,5-diazatricyclo[6.4.0.0^2,6]dodeca-1(8),3,5,9,11-pentaene-4-carboxamide]", "IC50": 770}, {"compound": "O=C(O)c1cn2c(n1)sc1c(Br)cccc12", "note": "[Example 212, 9-Bromo-7-thia-2,5-diazatricyclo[6.4.0.0^2,6]dodeca-1(8),3,5,9,11-pentaene-4-carboxylic acid]", "IC50": 700}, {"compound": "CC1(C)Cc2c(sc3nc(C(=O)O)cn23)C(C)(C)C1", "note": "[Example 32, 9,9,11,11-Tetramethyl-7-thia-2,5-diazatricyclo[6.4.0.0^2,6]dodeca-1(8),3,5-triene-4-carboxylic acid]", "IC50": 320}, {"compound": "CN1CCN(c2c(C(=O)O)nc3sc4c(n23)CC(C)(C)CC4(C)C)CC1", "note": "[Example 288, 9,9,11,11-Tetramethyl-3-(4-methylpiperazin-1-yl)-7-thia-2,5-diazatricyclo[6.4.0.0^2,6]dodeca-1(8),3,5-triene-4-carboxylic acid]", "IC50": 1060}, {"compound": "C=C(C)c1c(C(=O)O)nc2sc3c(n12)CC(C)(C)CC3(C)C", "note": "[Example 287, 9,9,11,11-Tetramethyl-3-(prop-1-en-2-yl)-7-thia-2,5-diazatricyclo[6.4.0.0^2,6]dodeca-1(8),3,5-triene-4-carboxylic acid]", "IC50": 760}, {"compound": "CC1(C)CCc2sc3nc(C(=O)NS(=O)(=O)CC(F)(F)F)cn3c2C1", "note": "[Example 57, 11,11-Dimethyl-N-(2,2,2-trifluoroethanesulfonyl)-7-thia-2,5-diazatricyclo[6.4.0.0^2,6]dodeca-1(8),3,5-triene-4-carboxamide]", "IC50": 740}, {"compound": "O=C(O)c1cn2c(n1)sc1cc(Cl)cc(Cl)c12", "note": "[Example 16, 10,12-Dichloro-7-thia-2,5-diazatricyclo[6.4.0.0^2,6]dodeca-1(8),3,5,9,11-pentaene-4-carboxylic acid]", "IC50": 1590}, {"compound": "CCS(=O)(=O)NC(=O)c1cn2c(n1)sc1c(Cl)c(Cl)ccc12", "note": "[Example 24, 9,10-Dichloro-N-(ethanesulfonyl)-7-thia-2,5-diazatricyclo[6.4.0.0^2,6]dodeca-1(8),3,5,9,11-pentaene-4-carboxamide]", "IC50": 340}, {"compound": "O=C(O)c1cn2c(n1)sc1c(Cl)ccc(Cl)c12", "note": "[Example 197, 9,12-Dichloro-7-thia-2,5-diazatricyclo[6.4.0.0^2,6]dodeca-1(8),3,5,9,11-pentaene-4-carboxylic acid]", "IC50": 1440}, {"compound": "Cc1c(C(=O)O)nc2sc3c(Cl)c(F)ccc3n12", "note": "[Example 234, 9-Chloro-10-fluoro-3-methyl-7-thia-2,5-diazatricyclo[6.4.0.0^2,6]dodeca-1(8),3,5,9,11-pentaene-4-carboxylic acid]", "IC50": 90}, {"compound": "COCCS(=O)(=O)NC(=O)c1cn2c(n1)sc1c(Cl)c(Cl)ccc12", "note": "[Example 23, 9,10-Dichloro-N-(2-methoxyethanesulfonyl)-7-thia-2,5-diazatricyclo[6.4.0.0^2,6]dodeca-1(8),3,5,9,11-pentaene-4-carboxamide]", "IC50": 320}, {"compound": "O=C(O)c1cn2c(n1)sc1cc(SC(F)(F)F)ccc12", "note": "[Example 201, 10-[(Trifluoromethyl)sulfanyl]-7-thia-2,5-diazatricyclo[6.4.0.0^2,6]dodeca-1(8),3,5,9,11-pentaene-4-carboxylic acid]", "IC50": 1470}, {"compound": "CC(C)(C)C1CCc2c(sc3nc(C(=O)NS(=O)(=O)CCCN4CCOCC4)cn23)C1", "note": "(centres unmarked) [Example 51, 10-tert-Butyl-N-[3-(morpholin-4-yl)propanesulfonyl]-7-thia-2,5-diazatricyclo[6.4.0.0^2,6]dodeca-1(8),3,5-triene-4-carboxamide]", "IC50": 490}, {"compound": "O=C(O)c1cn2c(n1)sc1cc(OC(F)(F)F)ccc12", "note": "[Example 4, 10-(Trifluoromethoxy)-7-thia-2,5-diazatricyclo[6.4.0.0^2,6]dodeca-1(8),3,5,9,11-pentaene-4-carboxylic acid]", "IC50": 1160}, {"compound": "CC1(C)Cc2c(sc3nc(C(=O)NS(C)(=O)=O)cn23)C1(C)C", "note": "[Example 52, N-Methanesulfonyl-4,4,5,5-tetramethyl-7-thia-1,9-diazatricyclo[6.3.0.0^2,6]undeca-2(6),8,10-triene-10-carboxamide]", "IC50": 440}, {"compound": "CCN(CC)CCCS(=O)(=O)NC(=O)c1cn2c3c(sc2n1)C(C)(C)CC(C)(C)C3", "note": "[Example 54, N-[3-(Diethylamino)propanesulfonyl]-9,9,11,11-tetramethyl-7-thia-2,5-diazatricyclo[6.4.0.0^2,6]dodeca-1(8),3,5-triene-4-carboxamide]", "IC50": 1360}, {"compound": "CC(C)(C)C1CCc2c(sc3nc(C(=O)O)c(NCc4ccccc4)n23)C1", "note": "(centres unmarked) [Example 42, 3-(Benzylamino)-10-tert-butyl-7-thia-2,5-diazatricyclo[6.4.0.0^2,6]dodeca-1(8),3,5-triene-4-carboxylic acid]", "IC50": 1040}, {"compound": "O=C(O)c1cn2c(n1)sc1c(Cl)c(Cl)c(OCCN3CCOCC3)cc12", "note": "[Example 261, 9,10-Dichloro-11-[2-(morpholin-4-yl)ethoxy]-7-thia-2,5-diazatricyclo[6.4.0.0^2,6]dodeca-1(8),3,5,9,11-pentaene-4-carboxylic acid]", "IC50": 550}, {"compound": "Cc1c(C(=O)O)nc2sc3c(n12)CCC(C(C)(C)C)C3", "note": "(centres unmarked) [Example 195, 10-tert-Butyl-3-methyl-7-thia-2,5-diazatricyclo[6.4.0.0^2,6]dodeca-1(8),3,5-triene-4-carboxylic acid]", "IC50": 240}, {"compound": "CC(C)(C)C1CCc2c(sc3nc(C(=O)O)c(CN4CCOCC4)n23)C1", "note": "(centres unmarked) [Example 242, 10-tert-Butyl-3-(morpholin-4-ylmethyl)-7-thia-2,5-diazatricyclo[6.4.0.0^2,6]dodeca-1(8),3,5-triene-4-carboxylic acid]", "IC50": 1390}, {"compound": "Cc1ccc2c(c1)sc1nc(C(=O)O)cn12", "note": "[Example 11, 10-Methyl-7-thia-2,5-diazatricyclo[6.4.0.0^2,6]dodeca-1(8),3,5,9,11-pentaene-4-carboxylic acid]", "IC50": 5020}, {"compound": "O=C(O)c1cn2c(n1)sc1cc(F)ccc12", "note": "[Example 10, 10-Fluoro-7-thia-2,5-diazatricyclo[6.4.0.0^2,6]dodeca-1(8),3,5,9,11-pentaene-4-carboxylic acid]", "IC50": 2970}]}]}
